Reference: patent EP4467154A1, “MEDICINE FOR TREATING OR PREVENTING CANCER” (CHUGAI SEIYAKU KABUSHIKI KAISHA, priority 2022, dated 2023)
Where two headings read alike, the source gives them in different places. Bridge positions count the residues as written; N and C are the ends. Square brackets hold non-standard residues; d marks the D form. Peptide text beside a SMILES is read from it. hPhe(3,5-F2-4-CF3) = N[C@@H](CCc1cc(F)c(C(F)(F)F)c(F)c1)C(=O)O; NEtPhe(4-Me) = CCN[C@@H](Cc1ccc(C)cc1)C(=O)O; NMeGly(cPent) = CN[C@H](C(=O)O)C1CCCC1; NMeD = CN[C@@H](CC(=O)O)C(=O)O; NMeL = CN[C@@H](CC(C)C)C(=O)O; NMeA = CN[C@@H](C)C(=O)O; Ac5c = NC1(C(=O)O)CCCC1; Aze = O=C(O)[C@@H]1CCN1; Sar = CNCC(=O)O

How the values were obtained:
NCI-H441 = test: Cell growth inhibitory activity, ATP (CellTiter-Glo 2.0), isobologram (Example 2), NCI-H441; format: cell-based, Human; conditions: set GI% 100%, 144 hours, test with RMC-4550
Experimental: (§1) Human cancer cell lines were seeded on a 384-well round bottom ultra-low attachment plate at a concentration of 750 cells per well and cultured in a 5% carbon gas incubator at 37°C. After 24 hours, CellTiter-Glo 2.0 (Promega Corporation) was added to part of the wells (3 wells), and the amount of ATP (V0) was determined using Envision plate readers (PerkinElmer Co., Ltd.). V0 was taken as the amount of ATP at time 0. DMSO alone or compound 1 and/or the compound for combined use each were added to another three wells. Compound 1 and the compound for combined use were used by serially diluting in 8 steps at a common ratio of 3 with 300 nM and 10 or 3000 nM taken as their respective highest concentrations. […] After culturing for 144 hours after addition of DMSO alone or compound 1 and/or the compound for combined use, the amount of ATP (T and V) was determined for the cells to which DMSO alone was added (DMSO-treated group) or the cells to which compound 1 and/or the compound for combined use was added (compound 1 and/or compound for combined use-treated group). […] The growth inhibition rate (Growth Inhibition %: GI%) was calculated using the following formulas. […] (1−(T−V0)/V0) × 100 [formula] (when T < V0) (1−(T−V0)/(V−V0)) × 100 [formula] […]

NCI-H358 [1] = test: Cell growth inhibitory activity, ATP (CellTiter-Glo 2.0), isobologram (Example 2), NCI-H358; format: cell-based, Human; conditions: 144 hours
Experimental: as §1

[2] = tested on: lung cancer line NCI-H1373 (KRAS-G12C); test: In vivo antitumor activity, NCI-H1373 xenograft model (Example 11); parameters: species or system Nude mice; conditions: compound 1 5 mg/kg orally once a day, TNO155 5 mg/kg orally twice a day, 35 days, Figure 19
From the text: A xenograft model to which lung cancer line NCI-H1373 (KRAS-G12C) was transplanted was used to evaluate in vivo antitumor activity due to combined use of compound 1 and TNO155. Nude mice were subcutaneously transplanted with 5 × 10^6 cells per mouse, and when the tumor volume reached 200 to 300 mm^3, the nude mice were randomized and administration of compound 1 and/or the compound for combined use was started (n = 8). Compound 1 was orally administered once a day and TNO155 was orally administered twice a day for an administration period of 35 days. The doses of the agents were 5 mg/kg for compound 1 and 5 mg/kg for TNO155. Compound 1 was dissolved in 10% DMSO/5% Cremphor EL/85% Distilled water and TNO155 was dissolved in 0.5% Tween 80/0.5% methylcellulose/99% distilled water, and administered. From the tumor volume data on the last measurement day, the tumor growth inhibition rate (Tumor Growth Inhibition %: TGI%) was calculated using the following formulas. […] Tumor growth inhibition rate (TGI%) = (1−TV/CV) × 100 [formula] Tumor volume (mm^3) = 1/2 × major axis (mm) × minor axis (mm) × minor axis (mm) [formula] [formula] • TV: Mean of the amount of change in tumor volume in the compound 1 monotherapy group, the TNO155 monotherapy group, or the combined use group • CV: Mean of the amount of change in tumor volume in the vehicle group

NCI-H358 [3] = conditions: read-out: set GI concentration (concentration as a single drug giving GI 50), set GI% 50%, 144 hours, test with trametinib
Experimental: as §1

[4] = tested on: lung cancer line NCI-H441 (KRAS-G12C); test: In vivo antitumor activity, NCI-H441 xenograft model (Example 12); parameters: species or system Nude mice; conditions: compound 1 3 mg/kg or 5 mg/kg, compound 2 0.25 mg/kg, orally once a day, 14 days, Figure 20
Experimental: (§2) A xenograft model to which lung cancer line NCI-H441 (KRAS-G12C) or NCI-H1373 (KRAS-G12C) was transplanted was used to evaluate in vivo antitumor activity due to combined use of compound 1 and compound 2. Nude mice were subcutaneously transplanted with 5 × 10^6 cells per mouse, and when the tumor volume reached 200 to 300 mm^3, randomization was performed and administration of compound 1 and/or the compound for combined use was started (n = 5). Compound 1 and compound 2 were orally administered once a day for an administration period of 14 days. The doses of the agents were 3 mg/kg or 5 mg/kg for compound 1 and 0.25 mg/kg for compound 2. Compound 1 was dissolved in 10% DMSO/5% Cremphor EL/85% Distilled water and compound 2 was dissolved in 10% DMSO/10% Cremphor EL/15% PEG400/15% HPBCD/50% distilled water, and administered. From the tumor volume data on the last measurement day, the tumor growth inhibition rate (Tumor Growth Inhibition %: TGI%) was calculated using the following formulas. […] Tumor growth inhibition rate (TGI%) = (1−TV/CV) × 100 [formula] Tumor volume (mm^3) = 1/2 × major axis (mm) × minor axis (mm) × minor axis (mm) [formula] [formula] • TV: Mean of the amount of change in tumor volume in the compound 1 monotherapy group, the compound 2 monotherapy group, or the combined use group • CV: Mean of the amount of change in tumor volume in the vehicle group

NCI-H1373 (KRAS-G12C) = test: In vivo antitumor activity, NCI-H1373 xenograft model (Example 12); parameters: species or system Nude mice; conditions: compound 1 3 mg/kg or 5 mg/kg, compound 2 0.25 mg/kg, orally once a day, 14 days, Figure 21
Experimental: as §2

Cc1nc(N2CCC3(CC2)CO[C@@H](C)[C@H]3N)c(CO)nc1-c1cccc(Cl)c1Cl [RMC-4550, 3-[(3S,4S)-4-amino-3-methyl-2-oxa-8-azaspiro[4.5]deca-8-yl]-6-(2,3-dichlorophenyl)-5-methyl-2-pyrazinemethanol]
set GI concentration (concentration as a single drug giving GI 100) (NCI-H441): 0.35 µM
set GI concentration (concentration as a single drug giving GI 155) (NCI-H358 [1]; set GI% 155%, test with RMC-4550): 0.55 µM

C[C@@H]1OCC2(CCN(c3cnc(Sc4ccnc(N)c4Cl)c(N)n3)CC2)[C@@H]1N [TNO155, (3S,4S)-8-(6-amino-5-((2-amino-3-chloropyridine-4-yl)thio)pyrazine-2-yl)-3-methyl-2-oxa-8-azaspiro[4.5]decane-4-amine]
tumor volume, compared with vehicle group [2]: increase in tumor volume suppressed

CC[C@H](C)[C@@H]1NC(=O)[C@H](CC(C)C)N(C)C(=O)C[C@@H](C(=O)N(C)C)N(C)C(=O)[C@H](C2CCCC2)N(C)C(=O)C2(CCCC2)NC(=O)[C@@H]2CCCN2C(=O)[C@H](CCc2cc(F)c(C(F)(F)F)c(F)c2)NC(=O)CN(C)C(=O)[C@H](Cc2ccc(C)cc2)N(CC)C(=O)[C@@H]2CCN2C(=O)[C@H](C)N(C)C1=O [compound 1, (5S,8S,11S,15S,18S,23aS,29S,35S,37aS)-8-((S)-sec-butyl)-18-cyclopentyl-29-(3,5-difluoro-4-(trifluoromethyl)phenethyl)-36-ethyl-11-isobutyl-N,N,5,6,12,16,19,33-octamethyl-35-(4-methylbenzyl)-4,7,10,13,17,20,23,28,31,34,37-undecaoxotetratriacontahydro-2H,4H-spiro[azeto[2,1-u]pyrrolo[2,1-i][1,4,7,10,13,16,19,22,25,28,31]undecaazacyclotetratriacontyne-21,1'-cyclopentane]-15-carboxamide] ([NMeL]I[NMeA][Aze][NEtPhe(4-Me)][Sar][hPhe(3,5-F2-4-CF3)]P[Ac5c][NMeGly(cPent)][NMeD]-NMe2; lactam N-11)
GI50 (NCI-H358 [3]): 4.6 nM

CNS(=O)(=O)Nc1nccc(Cc2cc(C(N)=O)c(Nc3ccc(C4CC4)cc3F)c(F)c2F)c1F [compound 2, 2-(4-cyclopropyl-2-fluoro-anilino)-3,4-difluoro-5-[[3-fluoro-2-(methylsulfamoylamino)-4-pyridyl]methyl]benzamide]
tumor volume, compared with vehicle group [4]: increase in tumor volume suppressed
tumor volume, compared with vehicle group (NCI-H1373 (KRAS-G12C)): increase in tumor volume suppressed

CC(=O)Nc1cccc(-n2c(=O)n(C3CC3)c(=O)c3c(Nc4ccc(I)cc4F)n(C)c(=O)c(C)c32)c1 [trametinib, N-[3-[3-cyclopropyl-5-(2-fluoro-4-iodo-phenylamino)-6,8-dimethyl-2,4,7-trioxo-3,4,6,7-tetrahydro-2H-pyrido[4,3-d]pyrimidine-1-yl]phenyl]acetamide]
GI50 (NCI-H358 [1]; Homo sapiens, set GI% 50%, single drug, test with trametinib, read-out: set GI concentration (concentration as a single drug giving GI 50)): 0.35 nM
